# Measured values reported in patent US9303069B2, “Peptides for treating cancer” (University of Mississippi Medical Center, priority 2014, dated 2016).
# Ends that are not written are not given here.
# Tests used:
# SKOV3 cells = experiment: Invasion assay, matrigel-coated Boyden chambers, SKOV3; assay type: cell-based, human; settings: 72 hours, IRIS peptide 5 μM, versus control-treated cells
# Method: Invasion assay: Control (transfected with siLuc or treated with scrambled peptide, 5 μM) or shIRIS expressing SKOV3 cells were layered on top of matrigel-coated Boyden chambers. Some cultures were treated with 5 μM IRIS peptide. Seventy-two hours later, cells that invaded the matrigel and migrated to the lower side of the chambers were stained with Crystal Violet, counted and photographed. […] Similarly, BRCA1-IRIS silenced cells also lost their invasion ability by ˜75 fold (compare C to A in FIG. 36 and FIG. 35).
# Cell Invasion assay. Growth reduced BD Matrigel™ invasion chamber (24 well plate, 8.0 μm, BD BioCoat™) was used to study the invasion ability of control and shBRCA1-IRIS cells. Cells (5×10^3) in complete medium (500 μl) were seeded on the upper compartment, and the lower compartment was filled with 750 μl of complete growth medium. Cells were incubated for 72 hours. The medium from the upper chamber was removed, and the cells on the upper surface of the membrane were removed carefully with a cotton swab. Invasive cells in lower side of the membrane were stained with crystal violet dye for 10 minutes. After staining, the upper chamber was rinse thoroughly with water until the water runs clear. Stained and dry chambers were visualized with microscope and photographed.
# BRCA1-IRIS and survivin = experiment: IHC of SKOV3 tumors for BRCA1-IRIS and survivin; assay type: in vivo, mice; settings: SKOV3 tumors after treatment
# Source text: Isolated tumors were mounted, sectioned and IHC stained for BRCA1-IRIS and survivin. […] It is possible that SKOV3 contain a heterogeneous population of cells that differ in their BRCA1-IRIS expression and thus that the remaining tumors are from those expressing no or low BRCA1-IRIS.
# Immunohistochemistry (IHC). Ovarian tissue microarrays comprised of normal, cancer and metastatic tissues were purchased from US Biomax, Inc. Paraffin-embedded tissue sections were de-waxed in xylene and rehydrated in alcohol. Antigen-retrieval for FOXO3a and survivin was performed by heating the slides in citrate buffer (10 μM, pH 6.0) using microwave for 10 minutes. Slides were then cooled to room temperature (RT) and washed with water followed by PBS for 15 minutes each. Antigen-retrieval for BRCA1-IRIS was performed by incubating the slides in pepsin (10 μM) for 20 minutes at 37° C. Endogenous peroxidase activity was suppressed by treating the slides with 3% hydrogen peroxide for 10 minutes. After washing steps slides were incubated for 1 hour at room temperature with antibodies to human FOXO3a (Cell Signaling Technology, USA 1:400) and survivin (Cell Signaling Technology, USA 1:400). For BRCA1-IRIS staining, slides were incubated overnight at 4° C. with monoclonal BRCA1-IRIS antibody at a 1:75 dilution. […]
# BRCA1-IRIS = BRCA1-IRIS expression in breast cells (Western); assay type: cell-based, human
# Method: HME and HME/IRIS cells were treated with 10, 20 and 50 μM of paclitaxel for 24 hours. Compared to HME/IRIS cells, untreated HME cells express very low level of BRCA1-IRIS (FIG. 68, left). […] Both EGF and NRG1, which were secreted at higher levels from untreated HME/IRIS cells, remained high after paclitaxel (until ˜50 μM, FIG. 68, left), whereas in HME cells, both were induced by low paclitaxel treatment (FIG. 68, left). Consistently, in HME/IRIS cells EGFR was phosphorylated on Y1173 (activated by EGF when EGFR is in complex with ErbB2) and ErbB2 on Y1248 (activated by NRG1 when ErbB2 is in complex with ErbB3) remained the same after paclitaxel treatment (until ˜50 μM, FIG. 68, left). Phosphorylated EGFR-Y1173 and ErbB2-Y1248 was only observed in paclitaxel treated HME cells, especially at low concentration (FIG. 68, left).
# Survived/paclitaxel-resistant cells were then propagated in the absence of paclitaxel and analyzed. Again, the intrinsically high level of BRCA1-IRIS was not affected by paclitaxel in HME/IRIS cells (FIG. 69, left). […] The expressions of EGFR, ErbB2 and ErbB3 were high in HME/IRIS and HME cells (FIG. 69, left). Despite an intrinsic increase in HME/IRIS and paclitaxel-acquired increase in HME cells in AKT activation, FOXO inactivation/degradation and thus activation increase in CyclinD1, survivin, Bcl-2, Bcl-xL and NF-κB was observed (FIG. 69, right).
# To test that hypothesis, an intron 11 peptide (right in FIG. 26) fused to a cell/nucleus penetrating signal at its N-terminus (left in FIG. 26) was synthesized (hereafter IRIS peptide). First, to assess the effect of this IRIS peptide, equal numbers of HME, HME/IRIS, MDA-MB-231, MDA-MB-468 and BT549 cells were exposed to increasing concentrations of scrambled or IRIS peptide for 48 hours. […] It is possible that preventing BRCA1-IRIS-X complex formation destabilizes BRCA1-IRIS and perhaps leads to its degradation.
# To investigate whether inactivating BRCA1-IRIS could sensitize TNBC to paclitaxel-induced cell death, HME cells were exposed to 0.5 μM, while HME/IRIS, MDA-MB-231, MDA-MB-468 and BT549 cells were exposed to 5 μM of IRIS peptide alone or with 5, 10 or 20 μM of paclitaxel for 24 hours. […] Again, IRIS peptide alone at these concentrations led to 50% reduction in survival of all cell lines. […] Indeed, in the presence of IRIS peptide >60%, >70% and >90% reduction in the survival of all cell lines in the presence of 5, 10 and 20 μM of paclitaxel, respectively (FIG. 84).
# To relate the effect of IRIS peptide on cell survival to the effect of BRCA1-IRIS on AKT and ERK survival pathways, MDA-MB-231 and MDA-MB-468 were treated with vehicle, 5 μM of IRIS peptide, 10 μM LY294002, 10 μM PD98059 for 24 hours or were transfected with BRCA1-IRIS siRNA for 72 hours.
sequence,measurement,setting,value
RRIRPRPPRLPRPRPRPLPFPRPGIGTRFLCLPQSIYRSELNVYAFGEHILQISKYS [IRIS peptide],decreased ability to invade,SKOV3 cells,~100 fold
same,BRCA1-IRIS and survivin staining of remaining tumor,BRCA1-IRIS and survivin,almost complete absence of BRCA1-IRIS and survivin staining
same,BRCA1-IRIS expression,"BRCA1-IRIS; HME, HME/IRIS and TNBC cell lines, 5 μM of IRIS peptide for 24 hours",significant reduction in BRCA1-IRIS expression
same,BRCA1-IRIS expression,"BRCA1-IRIS; MDA-MB-231 and MDA-MB-468, 5 μM IRIS peptide, 10 μM LY294002 or 10 μM PD98059 24 hours, siRNA 72 hours",significantly decreased in both cell lines
same,BRCA1-IRIS expression,"BRCA1-IRIS; all cell lines, IRIS peptide 0.5 μM (HME) or 5 μM (others), 24 hours",completely abolished BRCA1-IRIS expression in all cell lines
